Where two headings read alike, the source gives them in different places.
How the values were obtained:
[1] = test system: TSLP-evoked TARC release in human peripheral blood mononuclear cells; experiment: Inhibition of TSLP-evoked TARC release in human peripheral blood mononuclear cells; format: cell-based; conditions: read-out: pIC50 ± st. dev., inhibition of TSLP-evoked TARC release (converted)
Text: Assay 4: Inhibition of TSLP-Evoked TARC Release in Human Peripheral Blood Mononuclear Cells
Thymic stromal lymphopoietin (TSLP) and thymus and activation-regulated chemokine (TARC) are overexpressed in asthmatic airways, and correlate with disease severity. In the lungs, TSLP may be released by bronchial epithelial cells in response to allergens and viral infections. TSLP signals through an IL-7Rα/TSLPR heterodimer found in a broad range of tissues and cell types, including epithelial cells, endothelial cells, neutrophils, macrophages, and mast cells. The binding of TSLP to its receptor induces a conformational change that activates JAK1 and JAK2 to phosphorylate various transcription factors, including STAT3 and STAT5. In immune cells, this triggers a cascade of intracellular events that result in cell proliferation, anti-apoptosis, dendritic cell migration, and production of Th2 cytokines and chemokines. In peripheral blood mononuclear cells (PBMC), TSLP has a proinflammatory effect by activating myeloid dendritic cells to attract and stimulate T cells, a process mediated by the chemoattractant TARC.
The potencies of the test compounds were measured for inhibition of TARC release.
PBMC aliquots (previously isolated from whole blood and frozen in aliquots at −80° C.) from 3 to 5 donors were thawed at 37° C. and added dropwise to 40 mL pre-warmed, sterile-filtered, complete RPMI media in 50 mL Falcon tubes. Cells were pelleted and resuspended in complete media at 2.24×10^6 cells/mL. […] Cells were allowed to rest for 1 hour at 37° C. with 5% CO2.
Compounds were received as 10 mM stock solutions in DMSO. 3.7-fold serial dilutions were performed to generate 9 concentrations of test compound in DMSO at 300× the final assay test concentration. […] 95 μL of 0.2% DMSO in complete media was added to the untreated control wells. Cells were pre-treated with compound for 1 hour at 37° C. with 5% CO2 prior to stimulation.
Immediately prior to use, an aliquot was thawed and prepared at 20× the final assay concentration in complete media. 10 μL of 20×TSLP was added to each well of PBMC, for a final assay concentration of 10 ng/mL. 10 μL of complete media was added to the unstimulated control wells. Cells were stimulated in the presence of compound for 48 hours at 37° C. with 5% CO2.
Following stimulation, the cell culture supernatants were harvested and TARC levels were detected by enzyme-linked immunosorbent assay (ELISA), using Human CCL17/TARC Quantikine ELISA Kit (R&D Systems # DDN00) according to the manufacturer's instructions.
For dose response analysis, the log [test compound (M)] was plotted versus the percent response values for each donor, and IC50 values were determined using a nonlinear regression analysis with GraphPad Prism Software using the 4-parameter sigmoidal dose-response algorithm with variable slope. Data are expressed as mean pIC50 (negative decadic logarithm IC50) values calculated from pIC50 values of individual donors and rounded to one decimal place.

JAK2 = JAK2 (Homo sapiens (Human), UniProt O60674); experiment: Biochemical JAK kinase assay (LanthaScreen), JAK2
Experimental: (§1) Assay 1: Biochemical JAK Kinase Assays
(§2) A panel of four LanthaScreen JAK biochemical assays (JAK1, 2, 3 and Tyk2) were carried in a common kinase reaction buffer (50 mM HEPES, pH 7.5, 0.01% Brij-35, 10 mM MgCl2, and 1 mM EGTA). Recombinant GST-tagged JAK enzymes and a GFP-tagged STAT1 peptide substrate were obtained from Life Technologies.
(§3) Serially diluted compounds were pre-incubated with each of the four JAK enzymes and the substrate in white 384-well microplates (Corning) at ambient temperature for 1 h. ATP was subsequently added to initiate the kinase reactions in 10 μL total volume, with 1% DMSO. […] Kinase reactions were allowed to proceed for 1 hour at ambient temperature before a 10 μL preparation of EDTA (10 mM final concentration) and Tb-anti-pSTAT1 (pTyr701) antibody (Life Technologies, 2 nM final concentration) in TR-FRET dilution buffer (Life Technologies) was added. The plates were allowed to incubate at ambient temperature for 1 h before being read on the EnVision reader (Perkin Elmer). Emission ratio signals (520 nm/495 nm) were recorded and utilized to calculate the percent inhibition values based on DMSO and background controls.
(§4) For dose-response analysis, percent inhibition data were plotted vs. compound concentrations, and IC50 values were determined from a 4-parameter robust fit model with the Prism software (GraphPad Software). Results were expressed as pIC50 (negative logarithm of IC50) and subsequently converted to pKi (negative logarithm of dissociation constant, Ki) using the Cheng-Prusoff equation.

[2] = test system: IL-2 stimulated STAT5 phosphorylation in Tall-1 human T cell line; experiment: Inhibition of IL-2 stimulated pSTAT5 in Tall-1 T cells; format: cell-based
Experimental: Assay 2: Inhibition of IL-2 Stimulated pSTAT5 in Tall-1 T Cells
The potency of test compounds for inhibition of interleukin-2 (IL-2) stimulated STAT5 phosphorylation was measured in the Tall-1 human T cell line (DSMZ) using AlphaLisa.
Phosphorylated STAT5 was measured via the AlphaLISA SureFire Ultra pSTAT5 (Tyr694/699) kit (PerkinElmer).
Compounds were serially diluted in DMSO and dispensed acoustically to empty wells. Assay media (phenol red-free DMEM (Life Technologies) supplemented with 10% FBS (ATCC)) was dispensed (4 μL/well) and plates shaken at 900 rpm for 10 mins. Cells were seeded at 45,000 cells/well in assay media (4 μL/well), and incubated at 37° C., 5% CO2 for 1 hour, followed by the addition of IL-2 (R&D Systems; final concentration 300 ng/mL) in pre-warmed assay media (4 μL) for 30 minutes. […] The lysate was shaken at 900 rpm for 10 minutes at room temperature (RT). Phosphorylated STAT5 was measured via the pSTAT5 AlphaLisa kit (PerkinElmer). Freshly prepared acceptor bead mixture was dispensed onto lysate (5 μL) under green filtered <100 lux light. Plates were shaken at 900 rpm for 2 mins, briefly spun down, and incubated for 2 hrs at RT in the dark. Donor beads were dispensed (5 μL) under green filtered <100 lux light. Plates were shaken at 900 rpm for 2 minutes, briefly spun down, and incubated overnight at RT in the dark. Luminescence was measured with excitation at 689 nm and emission at 570 nm using an EnVision plate reader (PerkinElmer) under green filtered <100 lux light.
To determine the inhibitory potency of test compounds in response to IL-2, the average emission intensity of beads bound to pSTAT5 was measured in a human T cell line. IC50 values were determined from analysis of the inhibition curves of signal intensity versus compound concentration. Data are expressed as pIC50 (negative decadic logarithm IC50) values (mean±standard deviation).

Tyk2 = Tyk2 (Homo sapiens (Human), UniProt P29597); experiment: Biochemical JAK kinase assay (LanthaScreen), Tyk2; conditions: converted from pIC50 using Cheng-Prusoff; ATP 10 μM
Experimental: as §1, §2, §3, §4

Sequence of JAK2 (O60674 whole entry): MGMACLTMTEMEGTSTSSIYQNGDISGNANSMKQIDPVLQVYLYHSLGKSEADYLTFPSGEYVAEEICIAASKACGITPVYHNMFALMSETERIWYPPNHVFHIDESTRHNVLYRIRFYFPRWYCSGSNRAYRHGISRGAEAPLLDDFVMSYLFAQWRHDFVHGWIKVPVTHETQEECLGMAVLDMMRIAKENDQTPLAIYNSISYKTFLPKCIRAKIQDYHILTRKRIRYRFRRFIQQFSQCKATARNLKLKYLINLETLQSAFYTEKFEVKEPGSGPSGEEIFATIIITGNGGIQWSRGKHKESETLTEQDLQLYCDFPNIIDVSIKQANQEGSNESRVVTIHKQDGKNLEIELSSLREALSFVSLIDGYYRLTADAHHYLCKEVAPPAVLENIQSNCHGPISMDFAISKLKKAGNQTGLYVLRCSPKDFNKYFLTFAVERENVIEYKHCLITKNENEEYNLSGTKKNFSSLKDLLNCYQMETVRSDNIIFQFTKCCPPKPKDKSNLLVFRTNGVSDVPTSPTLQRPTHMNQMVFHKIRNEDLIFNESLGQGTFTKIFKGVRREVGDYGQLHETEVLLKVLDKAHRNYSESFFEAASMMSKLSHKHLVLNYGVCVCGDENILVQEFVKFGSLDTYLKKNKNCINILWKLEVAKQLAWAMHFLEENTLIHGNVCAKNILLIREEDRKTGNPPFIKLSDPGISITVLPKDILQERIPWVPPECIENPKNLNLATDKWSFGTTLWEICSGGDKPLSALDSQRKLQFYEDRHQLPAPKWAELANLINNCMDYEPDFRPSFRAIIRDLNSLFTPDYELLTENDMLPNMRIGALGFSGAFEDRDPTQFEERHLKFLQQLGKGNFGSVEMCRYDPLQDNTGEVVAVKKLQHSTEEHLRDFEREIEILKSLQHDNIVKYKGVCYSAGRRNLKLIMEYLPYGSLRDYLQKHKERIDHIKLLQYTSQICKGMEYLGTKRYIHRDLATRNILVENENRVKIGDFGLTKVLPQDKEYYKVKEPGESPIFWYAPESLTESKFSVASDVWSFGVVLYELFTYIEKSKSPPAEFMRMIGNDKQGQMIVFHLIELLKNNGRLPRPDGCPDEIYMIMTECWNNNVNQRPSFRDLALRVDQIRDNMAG
Sequence of Tyk2 (P29597 whole entry): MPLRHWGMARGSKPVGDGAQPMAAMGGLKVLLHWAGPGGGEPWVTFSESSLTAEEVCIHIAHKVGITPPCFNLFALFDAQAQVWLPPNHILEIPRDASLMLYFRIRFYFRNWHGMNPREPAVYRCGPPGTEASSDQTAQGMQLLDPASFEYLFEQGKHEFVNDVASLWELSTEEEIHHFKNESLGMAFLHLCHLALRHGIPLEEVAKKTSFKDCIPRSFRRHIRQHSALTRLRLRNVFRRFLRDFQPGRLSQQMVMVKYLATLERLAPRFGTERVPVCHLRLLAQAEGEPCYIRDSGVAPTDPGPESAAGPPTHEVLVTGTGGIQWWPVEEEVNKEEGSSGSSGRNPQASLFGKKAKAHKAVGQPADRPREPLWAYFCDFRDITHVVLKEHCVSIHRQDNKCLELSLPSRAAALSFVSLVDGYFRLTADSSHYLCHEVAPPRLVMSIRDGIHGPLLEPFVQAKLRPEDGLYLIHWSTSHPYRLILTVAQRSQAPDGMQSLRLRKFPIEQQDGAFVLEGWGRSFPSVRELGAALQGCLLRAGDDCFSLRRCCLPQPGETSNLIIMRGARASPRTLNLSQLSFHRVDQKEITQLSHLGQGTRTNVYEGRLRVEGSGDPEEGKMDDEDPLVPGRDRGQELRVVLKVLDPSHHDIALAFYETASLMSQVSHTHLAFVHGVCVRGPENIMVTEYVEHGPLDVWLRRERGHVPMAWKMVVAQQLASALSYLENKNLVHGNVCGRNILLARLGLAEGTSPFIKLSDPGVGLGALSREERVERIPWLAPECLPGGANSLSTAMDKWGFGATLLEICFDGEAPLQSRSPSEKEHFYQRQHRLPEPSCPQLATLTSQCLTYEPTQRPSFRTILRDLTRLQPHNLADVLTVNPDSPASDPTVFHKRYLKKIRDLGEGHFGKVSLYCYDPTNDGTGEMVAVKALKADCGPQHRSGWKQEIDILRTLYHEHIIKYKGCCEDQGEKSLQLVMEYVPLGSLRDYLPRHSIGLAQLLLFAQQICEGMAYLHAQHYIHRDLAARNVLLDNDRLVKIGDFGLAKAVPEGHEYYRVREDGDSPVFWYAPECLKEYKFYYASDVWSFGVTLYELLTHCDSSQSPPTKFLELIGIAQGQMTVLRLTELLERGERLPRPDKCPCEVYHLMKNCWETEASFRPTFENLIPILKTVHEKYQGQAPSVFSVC

## CCc1cc(O)ccc1-c1ccc2c(-c3nc4c([nH]3)CN(C)[C@H](C(=O)N3CCN(CCO)C[C@H]3C)C4)n[nH]c2c1 [Example 5, ((S)-2-(6-(2-ethyl-4-hydroxyphenyl)-1H-indazol-3-yl)-5-methyl-4,5,6,7-tetrahydro-3H-imidazo[4,5-c]pyridin-6-yl)((R)-4-(2-hydroxyethyl)-2-methylpiperazin-1-yl)methanone]
[1]; Homo sapiens, PBMC, 48 h
  IC50: 31.6 nM
JAK2
  Ki: 0.0316 nM
[2]; TALL-1, read-out: Tall-1 pIC50 (converted)
  IC50: 1.58 nM

## CCc1cc(O)ccc1-c1ccc2c(-c3nc4c([nH]3)CN(C(C)C)[C@H](C(=O)N3CC(N(C)C)C3)C4)n[nH]c2c1 [Example 7, (S)-(3-(dimethylamino)azetidin-1-yl)(2-(6-(2-ethyl-4-hydroxyphenyl)-1H-indazol-3-yl)-5-isopropyl-4,5,6,7-tetrahydro-3H-imidazo[4,5-c]pyridin-6-yl)methan One]
Tyk2
  Tyk2 pKi: 9.1
[1]; human PBMC, 3 to 5 donors, TSLP 10 ng/mL, 48 hours, ELISA
  IC50: 63.1 nM
JAK2; converted from pIC50 using Cheng-Prusoff, ATP 3 μM
  JAK2 pKi: 10.5
[2]; IL-2 300 ng/mL, pSTAT5 AlphaLisa, Tall-1 cells, read-out: Tall-1 pIC50 (converted)
  IC50: 2.51 nM

Reference: patent US10844057B2, “Process for preparing JAK inhibitors and intermediates thereof” (priority 2018, dated 2020)
